This is an account of results in ChEMBL document CHEMBL1133233, “The design and synthesis of thrombin inhibitors: the introduction of in vivo efficacy and oral bioavailability into benzthiazolylalanine inhibitors” (Bioorg Med Chem Lett, 2000).

Converted amounts (≈) assume the structure as drawn.

The target in one data set is Plasminogen (Homo sapiens, UniProt P00747). The data set can be described thus: Inhibitory activity against plasmin.
The nature of data set [1]: Inhibitory activity against TF/VIIa.
Data set [2] in a line: Bioavailability in rat (intraduodenal administration). The format is ADME, organism-based. The conditions noted are these: in vivo.
The next data set deals with Serine protease 1 (Homo sapiens, UniProt P07477). The data set is described as follows: Inhibitory activity against trypsin.
Serine protease 1, sequence (P07477 whole entry): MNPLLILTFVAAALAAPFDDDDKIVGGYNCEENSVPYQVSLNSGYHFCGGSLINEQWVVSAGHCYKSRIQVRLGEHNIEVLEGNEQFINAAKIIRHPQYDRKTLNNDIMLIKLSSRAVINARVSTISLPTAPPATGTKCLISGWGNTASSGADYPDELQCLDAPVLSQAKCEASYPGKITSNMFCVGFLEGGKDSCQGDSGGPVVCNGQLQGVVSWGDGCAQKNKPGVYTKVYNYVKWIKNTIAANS
Data set [3] is described as follows: Aqueous solubility at pH 2. The format is physicochemical.
Data set [4] can be described thus: Aqueous solubility at pH 7. The format is physicochemical.
Data set [5] in a line: Effectiveness to inhibit coagulation in plasma measured as activated partial thromboplastin time (APTT). The format is functional.
Data set [6] in a line: Oral bioavailability in rat. Conditions: in vivo. The format is ADME, organism-based.
The next data set concerns the target Prothrombin (Homo sapiens, UniProt P00734). The data set is described as follows: Evaluated for the binding affinity against thrombin.
In a further data set the target is Coagulation factor X (Homo sapiens, UniProt P00742). The data set can be described thus: Inhibitory activity against Coagulation factor X.
Coagulation factor X, sequence (P00742 41-179 limits assumed): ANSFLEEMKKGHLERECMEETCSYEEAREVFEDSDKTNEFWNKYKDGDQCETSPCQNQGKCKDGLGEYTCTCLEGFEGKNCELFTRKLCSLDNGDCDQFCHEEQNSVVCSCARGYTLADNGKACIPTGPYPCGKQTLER
Coagulation factor X, sequence (P00742 235-488 limits assumed): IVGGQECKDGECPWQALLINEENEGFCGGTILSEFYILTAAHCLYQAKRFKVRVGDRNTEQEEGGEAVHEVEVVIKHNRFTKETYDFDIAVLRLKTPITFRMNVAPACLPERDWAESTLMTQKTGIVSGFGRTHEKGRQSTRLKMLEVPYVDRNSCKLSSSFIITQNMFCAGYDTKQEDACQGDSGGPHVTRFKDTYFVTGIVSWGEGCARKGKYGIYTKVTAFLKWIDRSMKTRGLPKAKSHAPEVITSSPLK
In data set [7] the test system is Rattus norvegicus. The data set can be described thus: Inhibition of platelet deposition was determined on arterial thrombosis in the rat at 20 mg/kg oral administration using an acute model of injury induced thrombus formation. Conditions: read-out: Inhibition. The format is functional.
Data set [8] concerns Rattus norvegicus. The data set is described as follows: Inhibition of fibrin deposition was determined after 2 hr on arterial thrombosis in the rat at 20 mg/kg oral administration using an acute model of injury induced thrombus formation. The format is functional.
Data set [9] concerns Rattus norvegicus. The data set is described as follows: Inhibition of platelet deposition was determined on arterial thrombosis in the rat at 10 mg/kg oral administration using an acute model of injury induced thrombus formation. The format is functional.
Data set [10] deals with Rattus norvegicus. The data set can be described thus: Inhibition of fibrin deposition was determined after 1 hr on arterial thrombosis in the rat at 20 mg/kg oral administration using an acute model of injury induced thrombus formation. The format is functional.

Plasminogen, sequence (P00747 97-580 limits assumed): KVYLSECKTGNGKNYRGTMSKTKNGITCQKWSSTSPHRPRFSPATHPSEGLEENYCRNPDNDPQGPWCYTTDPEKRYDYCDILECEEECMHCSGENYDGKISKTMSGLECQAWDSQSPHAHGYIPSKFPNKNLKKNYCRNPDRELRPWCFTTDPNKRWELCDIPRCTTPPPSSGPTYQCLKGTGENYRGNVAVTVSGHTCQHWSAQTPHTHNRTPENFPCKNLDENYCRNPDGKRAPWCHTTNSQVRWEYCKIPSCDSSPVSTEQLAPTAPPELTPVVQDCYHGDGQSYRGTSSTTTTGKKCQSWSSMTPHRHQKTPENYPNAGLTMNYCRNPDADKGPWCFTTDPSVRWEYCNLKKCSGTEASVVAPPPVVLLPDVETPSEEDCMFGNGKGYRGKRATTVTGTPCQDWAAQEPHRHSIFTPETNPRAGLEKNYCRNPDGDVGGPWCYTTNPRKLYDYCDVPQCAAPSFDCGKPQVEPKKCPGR
Plasminogen, sequence (P00747 581-810 limits assumed): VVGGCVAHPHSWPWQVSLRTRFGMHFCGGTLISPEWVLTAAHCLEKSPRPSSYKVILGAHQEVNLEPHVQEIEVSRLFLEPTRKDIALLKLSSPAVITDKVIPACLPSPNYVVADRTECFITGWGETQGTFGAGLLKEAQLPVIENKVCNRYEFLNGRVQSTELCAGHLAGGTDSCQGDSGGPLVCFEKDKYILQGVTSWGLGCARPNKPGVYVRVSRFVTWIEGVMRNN

Consider `CC1(C)CNc2c(cc(CCC(=O)N3CCN(CC(=O)N4CCOCC4)CC3)cc2S(=O)(=O)N[C@@H](Cc2nc3ccccc3s2)C(=O)N2CCC(CCF)CC2)C1` [listing 1 of 2 here], for which the Ki (commonly a measure of affinity in units of concentration, obtained from inhibition or displacement) is 212 µM at Plasminogen; 11600 µM in data set [1]; 153 µM on Serine protease 1; 0.057 µM at Prothrombin; no less than 200 µM at Coagulation factor X. Also, the bioavailability (usually dose-corrected exposure relative to a reference, in per cent) in data set [2] stood at 38%; in [6], 28%. In addition, the solubility (as a rule, the dissolved amount per volume that the medium holds) was determined as 15000 µg/mL (≈ 18200 µM) in data set [3] and 130 µg/mL (≈ 157 µM) in data set [4]. The compound also came in with an APTT in [5] of 7 µM.
On to `CC1(C)CNc2c(cc(CCC(=O)N3CCN(Cc4ccncc4)CC3)cc2S(=O)(=O)N[C@@H](Cc2nc3ccccc3s2)C(=O)N2CCC(CCF)CC2)C1`, for which, in data set [5], the APTT is 9.7 µM. On Prothrombin, this compound displayed a Ki of 0.027 µM.
In turn, `CC1(C)CNc2c(cccc2S(=O)(=O)N[C@@H](Cc2nc3ccccc3s2)C(=O)N2CCC(CCF)CC2)C1` had an APTT in data set [5] of 26.5 µM.
In [5], `COCCOCOCc1cc2c(c(S(=O)(=O)N[C@@H](Cc3nc4ccccc4s3)C(=O)N3CCC(CCF)CC3)c1)NCC(C)(C)C2` registered an APTT of 18 µM. In addition, at Prothrombin, the Ki was 0.125 µM.
In data set [5], `CC(=O)N1CCN(C(=O)CCc2cc3c(c(S(=O)(=O)N[C@@H](Cc4nc5ccccc5s4)C(=O)N4CCC(CCF)CC4)c2)NCC(C)(C)C3)CC1` gave an APTT of 7.5 µM. For the same compound, at Prothrombin, the affinity corresponds to a Ki of 0.034 µM.
Consider `CN(C)C(=O)CCc1cc2c(c(S(=O)(=O)N[C@@H](Cc3nc4ccccc4s3)C(=O)N3CCC(CCF)CC3)c1)NCC(C)(C)C2`, for which the APTT in data set [5] stood at 9.2 µM. Also, at Prothrombin, the affinity corresponds to a Ki of 0.034 µM.
Regarding `CC1(C)CNc2c(cc(CCCO)cc2S(=O)(=O)N[C@@H](Cc2nc3ccccc3s2)C(=O)N2CCC(CCF)CC2)C1`, in data set [5], the APTT is 19 µM. The compound further had a Ki on Prothrombin of 0.119 µM.
Compound `CC1(C)CNc2c(cc(CCCC(=O)O)cc2S(=O)(=O)N[C@@H](Cc2nc3ccccc3s2)C(=O)N2CCC(CCF)CC2)C1` registered an APTT in data set [5] of 16.6 µM. For the same compound, the Ki on Prothrombin turned out to be 0.094 µM.
For the compound `CC1(C)CNc2c(cc(CC(=O)O)cc2S(=O)(=O)N[C@@H](Cc2nc3ccccc3s2)C(=O)N2CCC(CCF)CC2)C1`, the APTT in data set [5] was 14.9 µM. Affinity at Prothrombin was put at a Ki of 0.5 µM.
With `CC1(C)CNc2c(cc(CCC(=O)O)cc2S(=O)(=O)N[C@@H](Cc2nc3ccccc3s2)C(=O)N2CCC(CCF)CC2)C1`, the bioavailability in [2] amounted to 50%; in data set [6], 0%. The same compound returned a solubility in [4] of 5.15 µg/mL (≈ 8.16 µM). In addition, the APTT in [5] worked out at 10.7 µM. Besides, the Ki at Prothrombin turned out to be 0.082 µM.
In turn, `CC1(C)CNc2c(cc(CCO)cc2S(=O)(=O)N[C@@H](Cc2nc3ccccc3s2)C(=O)N2CCC(CCF)CC2)C1` registered an APTT in data set [5] of 13.7 µM. On Prothrombin, this compound displayed a Ki of 0.039 µM.
`CC1(C)CNc2c(cc(CCNC(N)=O)cc2S(=O)(=O)N[C@@H](Cc2nc3ccccc3s2)C(=O)N2CCC(CCF)CC2)C1` returned an APTT in data set [5] of 10.2 µM. In addition, affinity at Prothrombin was put at a Ki of 0.047 µM.
Compound `CC1(C)CNc2c(cc(CO)cc2S(=O)(=O)N[C@@H](Cc2nc3ccccc3s2)C(=O)N2CCC(CCF)CC2)C1` gave an APTT in [5] of 16.8 µM. In addition, the Ki at Prothrombin was 0.064 µM.
With `CC1(C)CNc2c(cc(C(=O)O)cc2S(=O)(=O)N[C@@H](Cc2nc3ccccc3s2)C(=O)N2CCC(CCF)CC2)C1`, in [5], the APTT turned out to be 13 µM. Besides, on Prothrombin, the affinity, expressed as Ki, was 0.359 µM.
The compound `CNC(=O)OCc1cc2c(c(S(=O)(=O)N[C@@H](Cc3nc4ccccc4s3)C(=O)N3CCC(CCF)CC3)c1)NCC(C)(C)C2` came in with an APTT in data set [5] of 20.7 µM. For the same compound, on Prothrombin, the Ki is 0.077 µM.
As for `CCOC(=O)c1cc2c(c(S(=O)(=O)N[C@@H](Cc3nc4ccccc4s3)C(=O)N3CCC(CCF)CC3)c1)NCC(C)(C)C2`, the APTT in [5] came to 105.4 µM.
On to `CC1(C)CNc2c(cc(CCC(=O)N3CCN(CC(=O)N4CCOCC4)CC3)cc2S(=O)(=O)N[C@@H](Cc2nc3ccccc3s2)C(=O)N2CCC(CCF)CC2)C1` [listing 2 of 2 here], for which the results for the inhibition in vivo at 20 mg/kg with Rattus norvegicus [7], in the data set on Rattus norvegicus [8] and with Rattus norvegicus [10] were 60%, 43% and 48%, respectively. This compound also came in with an inhibition in vivo at 10 mg/kg with Rattus norvegicus [9] of 60%.
Consider `CC1(C)CNc2c(cccc2S(=O)(=O)N[C@@H](CCCN=C(N)N)C(=O)N2CCC(CCF)CC2)C1` [CGH-728], for which the APTT in data set [5] was 2.1 µM. At Prothrombin, the affinity, expressed as Ki, was 0.006 µM.
